Source: article PMC12675575, “A BRET biosensor for measuring uncompetitive engagement of PRMT5 complexes in cells” (Nature Communications, 2025)
Several values for one entry are separate records, joined by “and”; a condition that tells them apart may be missing. Identical values can stand only once. Like-named read-outs stand apart in the source and are kept apart here.

Tests used:
NL-PRMT5 with WDR77 = target: T1, NL-PRMT5 with WDR77 (Homo sapiens, UniProt O14744); experiment: MRTX1719 kinetic washout (residence time) NanoBRET experiment in HEK293 cells; format: cell-based; conditions: 100uM MTA
T1 construct: host or cells: HEK293
T1 sequence (O14744 whole entry): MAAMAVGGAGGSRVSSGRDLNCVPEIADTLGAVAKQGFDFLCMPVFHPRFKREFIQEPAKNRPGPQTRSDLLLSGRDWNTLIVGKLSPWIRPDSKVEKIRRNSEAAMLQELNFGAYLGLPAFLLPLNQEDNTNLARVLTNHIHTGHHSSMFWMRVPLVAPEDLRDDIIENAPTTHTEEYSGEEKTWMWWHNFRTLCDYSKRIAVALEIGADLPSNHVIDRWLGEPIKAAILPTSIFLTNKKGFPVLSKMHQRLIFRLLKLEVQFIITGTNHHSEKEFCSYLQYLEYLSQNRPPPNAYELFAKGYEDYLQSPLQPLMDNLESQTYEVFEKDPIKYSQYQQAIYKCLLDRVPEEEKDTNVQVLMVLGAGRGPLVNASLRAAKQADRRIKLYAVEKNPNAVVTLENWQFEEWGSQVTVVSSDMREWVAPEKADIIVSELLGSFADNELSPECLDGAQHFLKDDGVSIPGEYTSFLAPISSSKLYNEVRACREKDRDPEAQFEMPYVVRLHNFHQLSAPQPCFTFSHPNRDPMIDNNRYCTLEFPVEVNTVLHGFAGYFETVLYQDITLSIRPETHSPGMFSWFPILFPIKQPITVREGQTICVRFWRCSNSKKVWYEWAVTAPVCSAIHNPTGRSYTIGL
T1 sequence (Q9BQA1 whole entry partner): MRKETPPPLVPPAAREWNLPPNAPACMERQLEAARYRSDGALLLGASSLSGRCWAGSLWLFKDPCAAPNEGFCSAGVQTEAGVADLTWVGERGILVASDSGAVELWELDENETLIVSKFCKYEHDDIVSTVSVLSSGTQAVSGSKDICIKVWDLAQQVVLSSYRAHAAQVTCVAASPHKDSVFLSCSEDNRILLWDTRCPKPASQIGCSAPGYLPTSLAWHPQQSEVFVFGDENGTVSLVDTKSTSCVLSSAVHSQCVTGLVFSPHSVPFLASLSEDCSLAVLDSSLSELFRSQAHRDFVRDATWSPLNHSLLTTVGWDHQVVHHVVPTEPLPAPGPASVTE
Experimental: On the next day, cells were resuspended in a 15 mL falcon tube and adjusted to 2 × 10^5 cells/mL in assay medium (OptiMEM with 1% FBS). […] After incubation, cells were centrifuged at 300 × g for 5 min, medium was aspirated and cells were washed with pre-warmed assay medium, centrifuged again and adjusted to 2 × 10^5 cells/mL. For the full occupancy control, MTA and compound concentrations were maintained. 34 μL of cells were added per well in a seeded into 96-well non-binding surface-treated plates (Corning), followed by addition of 36 μL of Complete 2x Substrate (prepared by combining Nano-Glo Substrate and Extracellular NanoLuc Inhibitor in Opti-MEM, according to the manufacturer’s protocol (Promega)). Then, 2 μL of ETP CBH-002 at a final concentration of 30 nM were added before immediate readout at the PheraSTAR FSX for 6 h. Readout and analysis were conducted as described earlier.

NLuc-PRMT5 = NLuc-PRMT5 (Homo sapiens, UniProt O14744); experiment: BRET probe sensitivity to exogenous MTA in live HEK293 cells expressing NLuc-PRMT5; format: cell-based; parameters: host or cells: HEK293 (live cells; digitonin lysate for the SAM titration); conditions: for remaining activity at […] / remaining activity at 1000 µM: Log([MTA]), room temperature, read-out: Normalized BRET probe signal; for remaining activity at 1000 µM: uM 3.00
Chain of NLuc-PRMT5 (O14744 whole entry): as the sequence (O14744 whole entry) above
Chain of NLuc-PRMT5 (Q9BQA1 whole entry partner): as the sequence (Q9BQA1 whole entry partner) above
Experimental: To measure BRET probe sensitivity to both MAT2A inhibition and exogenous MTA in live cells, HEK293 cells were pre-treated with 30 nM CBH-002 and incubated at 37 °C and 5% CO2 for 2 h. For MAT2A inhibition, a 20 µM, 3-fold, 11 pt titration series of Compound A (Selleckchem) was added to wells. Cells were incubated either at 37 °C (Fig. 3D) or room temperature (Fig. S3D). Data were normalized using Eq. (2), where BRETMIN = instrument background (no CBH-002), and BRETMAX = 2 h vehicle treatment, and fit curves were generated using Eq. (1). For MTA sensitivity cells were treated with a 1 mM, 11 pt, 2-fold series of MTA (Sigma) and cells were incubated at room temperature for 2 h, reading in 15 min intervals. Data were normalized using Eq. (2), where BRETMIN = instrument background (no CBH-002), and BRETMAX = 2 h + vehicle treatment. Data were fit with Eq. (1).

BRET, Figure S5I (NL-PRMT5 with WDR77; time 72 min): 1.398 and 1.341 and 1.428 and 1.319 | remaining activity at […] (NLuc-PRMT5; HEK293, 0.5 h, uM 0.29, Time (min) 30): 98.1% | remaining activity at […] (NLuc-PRMT5; HEK293, 0.5 h, uM 0.59, Time (min) 30): 97.9% | remaining activity at […] (NLuc-PRMT5; HEK293, 0.5 h, uM 0.89, Time (min) 30): 99.1% | remaining activity at […] (NLuc-PRMT5; HEK293, 0.5 h, uM 1.19, Time (min) 30): 97.4% | remaining activity at […] (NLuc-PRMT5; HEK293, 0.5 h, uM 1.49, Time (min) 30): 95.2% | remaining activity at […] (NLuc-PRMT5; HEK293, 0.5 h, uM 1.80, Time (min) 30): 93% | remaining activity at […] (NLuc-PRMT5; HEK293, 0.5 h, uM 2.10, Time (min) 30): 90.2% | remaining activity at […] (NLuc-PRMT5; HEK293, 0.5 h, uM 2.40, Time (min) 30): 87.8% | remaining activity at […] (NLuc-PRMT5; HEK293, 0.5 h, uM 2.70, Time (min) 30): 86.4% | remaining activity at 1000 µM (NLuc-PRMT5; HEK293, 0.5 h, Time (min) 30): 85.4% | remaining activity at […] (NLuc-PRMT5; HEK293, 1 h, uM 0.29, Time (min) 60): 99.2% | remaining activity at […] (NLuc-PRMT5; HEK293, 1 h, uM 0.59, Time (min) 60): 99.7% | remaining activity at […] (NLuc-PRMT5; HEK293, 1 h, uM 0.89, Time (min) 60): 98.1% | remaining activity at […] (NLuc-PRMT5; HEK293, 1 h, uM 1.19, Time (min) 60): 96.8% | remaining activity at […] (NLuc-PRMT5; HEK293, 1 h, uM 1.49, Time (min) 60): 94.8% | remaining activity at […] (NLuc-PRMT5; HEK293, 1 h, uM 1.80, Time (min) 60): 91.1% | remaining activity at […] (NLuc-PRMT5; HEK293, 1 h, uM 2.10, Time (min) 60): 87.7% | remaining activity at […] (NLuc-PRMT5; HEK293, 1 h, uM 2.40, Time (min) 60): 84.6% | remaining activity at […] (NLuc-PRMT5; HEK293, 1 h, uM 2.70, Time (min) 60): 79.9% | remaining activity at 1000 µM (NLuc-PRMT5; HEK293, 1 h, Time (min) 60): 78.1% | remaining activity at […] (NLuc-PRMT5; HEK293, 2 h, uM 0.29, Time (min) 120): 98.3% | remaining activity at […] (NLuc-PRMT5; HEK293, 2 h, uM 0.59, Time (min) 120): 98.5% | remaining activity at […] (NLuc-PRMT5; HEK293, 2 h, uM 0.89, Time (min) 120): 97.2% | remaining activity at […] (NLuc-PRMT5; HEK293, 2 h, uM 1.19, Time (min) 120): 96% | remaining activity at […] (NLuc-PRMT5; HEK293, 2 h, uM 1.49, Time (min) 120): 93.7% | remaining activity at […] (NLuc-PRMT5; HEK293, 2 h, uM 1.80, Time (min) 120): 90% | remaining activity at […] (NLuc-PRMT5; HEK293, 2 h, uM 2.10, Time (min) 120): 85.1% | remaining activity at […] (NLuc-PRMT5; HEK293, 2 h, uM 2.40, Time (min) 120): 81.7% | remaining activity at […] (NLuc-PRMT5; HEK293, 2 h, uM 2.70, Time (min) 120): 75.7% | remaining activity at 1000 µM (NLuc-PRMT5; HEK293, 2 h, Time (min) 120): 72.8% | Time to plateau of BRET inhibition (NLuc-PRMT5; live HEK293, room temperature): ~ 2 h
Compound: CSC[C@H]1O[C@@H](n2cnc3c(N)ncnc32)[C@H](O)[C@@H]1O [MTA, methylthioadenosine]
BRET, Figure S5I (NL-PRMT5 with WDR77; time 0 min): 0.1105 and 0.1241 and 0.1192 and 0.1078 and 0.1088 and 0.1195 and 0.1138 and 0.1151 | BRET, Figure S5I (NL-PRMT5 with WDR77; time 6 min): 0.3119 and 0.3036 and 0.3616 and 0.2837 and 0.2843 and 0.315 and 0.3325 and 0.3197 | BRET, Figure S5I (NL-PRMT5 with WDR77; time 12 min): 0.5293 and 0.4857 and 0.5913 and 0.4586 and 0.456 and 0.5044 and 0.5405 and 0.5123 | BRET, Figure S5I (NL-PRMT5 with WDR77; time 18 min): 0.7285 and 0.6611 and 0.7995 and 0.6306 and 0.6158 and 0.6735 and 0.7234 and 0.6889 | BRET, Figure S5I (NL-PRMT5 with WDR77; time 24 min): 0.8959 and 0.8098 and 0.9637 and 0.7786 and 0.7595 and 0.8227 and 0.869 and 0.8404 | BRET, Figure S5I (NL-PRMT5 with WDR77; time 30 min): 1.03 and 0.937 and 1.09 and 0.9086 and 0.8803 and 0.9486 and 0.9887 and 0.9612 | BRET, Figure S5I (NL-PRMT5 with WDR77; time 36 min): 1.134 and 1.042 and 1.191 and 1.015 and 0.9796 and 1.049 and 1.086 and 1.061 | BRET, Figure S5I (NL-PRMT5 with WDR77; time 42 min): 1.201 and 1.125 and 1.257 and 1.0947 and 1.057 and 1.127 and 1.168 and 1.1428 | BRET, Figure S5I (NL-PRMT5 with WDR77; time 48 min): 1.264 and 1.1938 and 1.301 and 1.164 and 1.1261 and 1.183 and 1.221 and 1.192 | BRET, Figure S5I (NL-PRMT5 with WDR77; time 54 min): 1.305 and 1.245 and 1.342 and 1.215 and 1.178 and 1.2272 and 1.267 and 1.255 | BRET, Figure S5I (NL-PRMT5 with WDR77; time 60 min): 1.34 and 1.2815 and 1.366 and 1.252 and 1.226 and 1.27 and 1.304 and 1.278 | BRET, Figure S5I (NL-PRMT5 with WDR77; time 66 min): 1.37 and 1.322 (2×) and 1.406 and 1.285 and 1.248 and 1.298 and 1.329
